Earlier results, collected in patent publication US7419995B2, “N-substituted benzimidazoyl c-Kit inhibitors and combinatorial benzimidazole library” (OSI Pharmaceuticals, Inc., priority 2004, dated 2008).
Where a name gives a salt, the structure may show the parent alone.

System: MO7e human leukemia cells

Cc1ccc(NC(=O)c2ccc(CN3CCN(C)CC3)cc2)cc1Nc1nccc(-c2cccnc2)n1 [Gleevec, imatinib mesylate]
GM-CSF stimulated growth of MO7e cells (GM-CSF stimulated): not affected
Kit ligand-stimulated growth of MO7e cells (Kit ligand-stimulated): inhibited
apoptosis of MO7e cells (Kit ligand-stimulated conditions): induces apoptosis
